Measurements: patent US20200214324A1, “Masking Bitter Flavors” (Board of Supervisors of Louisiana State University and …, priority 2009, published 2020)

How the values were obtained:
[1] = vegetable oil with mogroside sprayed onto vegetables, tasting; type: in vivo; details: vegetable oil with 800 ppm mogroside sprayed on
Source text: Mogroside may also be applied to vegetables, for example as a spray or as a dipping solution. The bitter and astringent flavor notes of many vegetables are thereby reduced substantially, resulting in a smoother-tasting vegetable. Mogroside can also reduce beany notes and off-flavors in vegetables. We dispersed an aqueous or ethanol solution of mogroside into vegetable oil at a concentration of 800 ppm. The vegetable oil was then sprayed onto vegetables, either before or after cooking. […] The mogroside may be applied to vegetables from aerosols or misting solutions. It may also be used in microwaving, steaming, or boiling of vegetables, as well as other methods of cooking. […] Treating vegetables with mogroside can help to improve their acceptability.

[2] = solubility of mogroside in water versus oil; type: physicochemical
Source text: Addition of mogroside will also help improve the flavor of other organ meats and products containing organ meats. Other methods of cooking may also be used. The concentration or amount of mogroside may vary, depending on the method of cooking used. […] By contrast, cooking foods in water may require that higher concentrations of mogroside be used than when cooking in oil, because the mogroside is soluble in the cooking liquid. Higher concentrations of mogroside may be needed to promote osmosis or diffusion into the food. Temperature and cooking time will also have an effect on uptake of mogroside: In general, more mogroside will be taken up by food when the cooking temperature is higher, and also when the cooking time is longer.

[3] = tasting of rum with mogroside; type: in vivo; details: plain + 200 ppm mogroside (plain: sharp and bitter)
Source text: (§1) Additional examples of the use of Mogroside V to alter the flavors of various consumables, and the experimental results obtained, are summarized in Table I: […]

[4] = tasting of vodka with mogroside; type: in vivo; details: plain + 200 ppm mogroside (plain: sharp bite)
Source text: as §1

For mogroside, the observed flavor change ([1]; artichoke hearts) was “reduction in bitterness and grassy flavor”, the observed flavor change ([1]; broccoli) was “reduction in sulfur and bitter notes” and the observed flavor change ([1]; carrots) was “more intense sweetness”. The observed flavor change ([1]; corn) was “sweeter corn flavor”, the observed flavor change ([1]; green beans) was “sweeter flavor and fewer beany notes” and the observed flavor change ([1]; lima beans) was “reduction in bitterness”. For the same substance, the observed flavor change ([1]; peas) was “shorter flavor profile”, the “solubility in water compared with oil” value [2] was “much higher than that in oil” and the flavor [3] was “sweet”. For the same substance, the flavor [4] was “tasteless”.
